This passage reports IC50 results from patent US7932270B2 (Cytokinetics, Inc., priority 2006, dated 2011).

T1 sequence (P02607 2-151): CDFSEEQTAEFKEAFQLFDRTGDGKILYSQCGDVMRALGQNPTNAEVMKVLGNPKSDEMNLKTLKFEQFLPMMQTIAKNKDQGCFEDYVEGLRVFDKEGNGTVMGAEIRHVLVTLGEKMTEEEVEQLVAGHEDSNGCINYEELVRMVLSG
T1 sequence (P10587 84-789): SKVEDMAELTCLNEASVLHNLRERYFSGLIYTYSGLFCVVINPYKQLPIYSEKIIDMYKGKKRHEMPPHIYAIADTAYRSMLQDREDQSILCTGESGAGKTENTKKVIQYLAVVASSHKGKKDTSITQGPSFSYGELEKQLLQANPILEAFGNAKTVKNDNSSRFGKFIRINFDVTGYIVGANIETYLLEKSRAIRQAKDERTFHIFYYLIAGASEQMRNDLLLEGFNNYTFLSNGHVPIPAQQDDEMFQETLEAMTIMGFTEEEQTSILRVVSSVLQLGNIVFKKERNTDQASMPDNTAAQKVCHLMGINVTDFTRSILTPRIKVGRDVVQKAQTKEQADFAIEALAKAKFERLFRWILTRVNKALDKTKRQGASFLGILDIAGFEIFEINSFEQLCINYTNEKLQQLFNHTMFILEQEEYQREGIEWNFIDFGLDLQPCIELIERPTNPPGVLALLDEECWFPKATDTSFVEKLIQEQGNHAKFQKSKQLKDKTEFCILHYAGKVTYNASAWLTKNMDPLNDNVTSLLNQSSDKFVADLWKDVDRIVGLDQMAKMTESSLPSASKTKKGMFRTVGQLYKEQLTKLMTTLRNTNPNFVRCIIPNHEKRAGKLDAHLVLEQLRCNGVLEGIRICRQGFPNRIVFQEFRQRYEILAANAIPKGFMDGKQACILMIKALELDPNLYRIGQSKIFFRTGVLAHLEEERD

This assay addresses T1, chicken gizzard smooth muscle myosin subfragment-1 chemically crosslinked to cardiac or skeletal actin (Gallus gallus, UniProt P10587).
T1 construct: chicken gizzard smooth muscle myosin subfragment-1; from tissue; host or cells: chicken gizzard
Kind of assay: Smooth muscle myosin ATPase dose response assay (pyruvate kinase/horseradish peroxidase/pyruvate oxidase-coupled, amplex red fluorescence). The class given is biochemical. To be noted: read-out: IC50 Arithmetic Mean. In outline: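 Readout is amplex red signal from coupled ATPase of actin-crosslinked gizzard myosin S1 (0.15 mM ATP, 12 mM K-PIPES, pH 7.00). IC50 is the half-maximal activity point of a four-parameter Hill fit.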
For `O=C(NCc1cccnc1)c1ccc(-c2ccccc2)nc1NCCc1ccccc1Cl` [(2-{[2-(2-chlorophenyl)ethyl]amino}-6-phenyl(3-pyridyl))-N-(3-pyridylmethyl)carboxamide], the IC50 turned out to be 0.16 µM.

Regarding `O=C(NCc1cccnc1)c1ccc(-c2ccc(F)cc2)nc1NCCc1cccc(F)c1` [(6-(4-fluorophenyl)-2-{[2-(3-fluorophenyl)ethyl]amino}(3-pyridyl))-N-(3-pyridylmethyl)carboxamide], the IC50 was determined as 0.198 µM.

For the molecule `CC(C)C[C@H](CNC(=O)c1ccc(-c2ccccc2C#N)nc1NCCc1cccc(F)c1)NC(=O)CO` [N-((1R)-1-{[(6-(2-cyanophenyl)-2-{[2-(3-fluorophenyl)ethyl]amino}(3-pyridyl))carbonylamino]methyl}-3-methylbutyl)-2-hydroxyacetamide], the IC50 worked out at 1.17 µM.

Regarding `N#Cc1ccccc1-c1ccc(C(=O)NC[C@H]2CCCCN2C(=O)CN)c(NCCc2cccc(F)c2)n1` [N-{[(2R)-1-(2-aminoacetyl)(2-piperidyl)]methyl}(6-(2-cyanophenyl)-2-{[2-(3-fluorophenyl)ethyl]amino}(3-pyridyl))carboxamide], the IC50 was found to be 0.092 µM.

With `C[C@@H](CN=[N+]=[N-])CNC(=O)c1cc(F)c(-c2cnn(C)c2)nc1NCCc1cccc(F)c1` [N-((2R)-4-diazo-2-methyl-4-azabut-4-enyl)(5-fluoro-2-{[2-(3-fluorophenyl)ethyl]amino}-6-(1-methylpyrazol-4-yl)(3-pyridyl))carboxamide], the IC50 turned out to be 0.118 µM.

As to `CC(C)(C)OC(=O)NCCC(=O)N1CCC[C@@H]1CNC(=O)c1cc(F)c(-c2cn[nH]c2)nc1NCCc1cccc(F)c1` [N-[((2R)-1-{3-[(tert-butoxy)carbonylamino]propanoyl}pyrrolidin-2-yl)methyl](5-fluoro-2-{[2-(3-fluorophenyl)ethyl]amino}-6-pyrazol-4-yl(3-pyridyl))carboxamide], the IC50 stood at 0.98 µM.

On to `CNC(=O)CNC(=O)c1ccc(-c2cnn(C)c2)nc1NCCc1cccc(F)c1` [2-[(2-{[2-(3-fluorophenyl)ethyl]amino}6-(1-methylpyrazol-4-yl)(3-pyridyl))carbonylamino]-N-methylacetamide], for which the IC50 came to 0.35 µM.

For the molecule `CN(C)CCNC(=O)c1ccc(-c2ccccc2C#N)nc1NCCc1cccc(F)c1` [N-[2-(dimethylamino)ethyl](6-(2-cyanophenyl)-2-{[2-(3-fluorophenyl)ethyl]amino}(3-pyridyl))carboxamide], the IC50 amounted to 4.22 µM.

As to `O=C(NCc1ncco1)c1ccc(-c2ccccc2)nc1NCCc1ccccn1` [N-(1,3-oxazol-2-ylmethyl){6-phenyl-2-[(2-(2-pyridyl)ethyl)amino](3-pyridyl)}carboxamide], the IC50 is 4.9 µM.

In the case of `COC(=O)[C@H](CO)NC(=O)c1ccc(-c2ccccc2C#N)nc1NCCc1cccc(F)c1` [methyl (2S)-2-[(6-(2-cyanophenyl)-2-{[2-(3-fluorophenyl)ethyl]amino}(3-pyridyl))carbonylamino]-3-hydroxypropanoate], the half-inhibitory concentration (IC50) amounted to 4.18 µM.

For the molecule `CN1CCN[C@@H](CNC(=O)c2ccc(-c3ccccc3C#N)nc2NCCc2cccc(F)c2)C1` [N-[((2S)-4-methylpiperazin-2-yl)methyl](6-(2-cyanophenyl)-2-{[2-(3-fluorophenyl)ethyl]amino}(3-pyridyl))carboxamide], the IC50 is 2.92 µM.

Take `O=C(NCc1cccnc1)c1ccc(-c2ccccc2)nc1NCCC1CCCCC1` [{2-[(2-cyclohexylethyl)amino]-6-phenyl(3-pyridyl)}-N-(3-pyridylmethyl)carboxamide]: the IC50 turned out to be 1.85 µM.

On to `Cc1ccc(C)c(-c2ccc(C(=O)NCc3cccnc3)c(NCCc3ccccn3)n2)c1` [{6-(2,5-dimethylphenyl)-2-[(2-(2-pyridyl)ethyl)amino](3-pyridyl)}-N-(3-pyridylmethyl)carboxamide], for which the IC50 turned out to be 13.6 µM.

With `N#Cc1ccccc1-c1ccc(C(=O)NCC(=O)NCCO)c(NCCc2cccc(F)c2)n1` [2-[(6-(2-cyanophenyl)-2-{[2-(3-fluorophenyl)ethyl]amino}(3-pyridyl))carbonylamino]-N-(2-hydroxyethyl)acetamide], the half-maximal inhibitory concentration (IC50) was found to be 2.07 µM.

Turning to `N#Cc1ccccc1-c1ccc(C(=O)NCC2CCCNC2=O)c(NCCc2cccc(F)c2)n1` (stereo not shown) [(6-(2-cyanophenyl)-2-{[2-(3-fluorophenyl)ethyl]amino}(3-pyridyl))-N-[(2-oxo(3-piperidyl))methyl]carboxamide], the IC50 amounted to 0.014 µM.

Regarding `Cn1cc(-c2ccc(C(=O)NC[C@H]3CCCN3)c(NCCc3cccc(F)c3)n2)cn1` [N-[((2R)pyrrolidin-2-yl)methyl](2-{[2-(3-fluorophenyl)ethyl]amino}-6-(1-methylpyrazol-4-yl)(3-pyridyl))carboxamide], the 50% inhibitory concentration (IC50) is 3.18 µM.

Take `CC(=O)N[C@H](C)CNC(=O)c1cc(F)c(-c2cnn(C)c2)nc1NCCc1cccc(F)c1`: the IC50 was determined as 0.251 µM.

Consider `N#Cc1ccccc1-c1ccc(C(=O)NCc2cccnc2NCCCN)c(NCCc2cccc(F)c2)n1` [N-({2-[(3-aminopropyl)amino](3-pyridyl)}methyl)(6-(2-cyanophenyl)-2-{[2-(3-fluorophenyl)ethyl]amino}(3-pyridyl))carboxamide], for which the IC50 is 0.017 µM.

Consider `O=C(NCc1cccnc1)c1cc(C(=O)NCc2cccnc2)c(-c2ccccc2)nc1NCCc1cccc(F)c1` [(2-{[2-(3-fluorophenyl)ethyl]amino}-6-phenyl-5-[N-(3-pyridylmethyl)carbamoyl](3-pyridyl))-N-(3-pyridylmethyl)carboxamide], for which the IC50 stood at 56 µM.

Regarding `Cn1cc(-c2nc(NCCc3cccc(F)c3)c(C(=O)NCC(C)(C)O)cc2F)cn1` [(5-fluoro-2-{[2-(3-fluorophenyl)ethyl]amino}-6-(1-methylpyrazol-4-yl)(3-pyridyl))-N-(2-hydroxy-2-methylpropyl)carboxamide], the IC50 was determined as 0.381 µM.

On to `CN(C)c1ccc(CNC(=O)c2ccc(-c3ccccc3C#N)nc2NCCc2cccc(F)c2)cn1` [N-{[6-(dimethylamino)(3-pyridyl)]methyl}(6-(2-cyanophenyl)-2-{[2-(3-fluorophenyl)ethyl]amino}(3-pyridyl))carboxamide], for which the half-inhibitory concentration (IC50) is 30.2 µM.

With `N#Cc1ccccc1-c1ccc(C(=O)NCc2cccnc2)c(NCC(O)c2cccc(F)c2)n1` (stereo not shown) [(6-(2-cyanophenyl)-2-{[2-(3-fluorophenyl)-2-hydroxyethyl]amino}(3-pyridyl))-N-(3-pyridylmethyl)carboxamide], the IC50 is 0.339 µM.

On to `CC(=O)N1CCC[C@@H]1CNC(=O)c1ccc(-c2ccccc2C#N)nc1NCCc1cccc(F)c1` [N-[((2R)-1-acetylpyrrolidin-2-yl)methyl](6-(2-cyanophenyl)-2-{[2-(3-fluorophenyl)ethyl]amino}(3-pyridyl))carboxamide], for which the IC50 was determined as 0.119 µM.

Consider `CC(C)(C)OC(=O)NCCC(=O)N1CCC[C@@H]1CNC(=O)c1cc(F)c(-c2ccccc2C#N)nc1NCCc1cccc(F)c1` [N-[((2R)-1-{3-[(tert-butoxy)carbonylamino]propanoyl}pyrrolidin-2-yl)methyl](6-(2-cyanophenyl)-5-fluoro-2-{[2-(3-fluorophenyl)ethyl]amino}(3-pyridyl))carboxamide], for which the IC50 came out at 2.77 µM.

Consider `Cn1nccc1CNC(=O)c1ccc(-c2ccccc2)nc1NCCc1ccccn1` [N-[(1-methylpyrazol-5-yl)methyl]{6-phenyl-2-[(2-(2-pyridyl)ethyl)amino](3-pyridyl)}carboxamide], for which the IC50 amounted to 1.3 µM.

Regarding `CC(C)(CNC(=O)c1ccc(-c2ccccc2C#N)nc1NCCc1cccc(F)c1)NC(=O)CNC(=O)OC(C)(C)C`, the IC50 was found to be 9.57 µM.

Consider `NCCCn1ccc(CNC(=O)c2ccc(-c3cc[nH]n3)nc2NCCc2cccc(F)c2)n1` [N-{[1-(3-aminopropyl)pyrazol-3-yl]methyl}(2-{[2-(3-fluorophenyl)ethyl]amino}-6-pyrazol-3-yl(3-pyridyl))carboxamide], for which the IC50 was 3.76 µM.

In the case of `N#Cc1ccccc1-c1ccc(C(=O)NC[C@@H]2CCCCN2C(=O)CN)c(NCCc2cccc(F)c2)n1` [N-{[(2S)-1-(2-aminoacetyl)(2-piperidyl)]methyl}(6-(2-cyanophenyl)-2-{[2-(3-fluorophenyl)ethyl]amino}(3-pyridyl))carboxamide], the IC50 stood at 0.074 µM.

As to `O=C(NCc1cccnc1)c1cc(F)c(-c2cn[nH]c2)nc1NCCc1cccc(F)c1` [(5-fluoro-2-{[2-(3-fluorophenyl)ethyl]amino}-6-pyrazol-4-yl(3-pyridyl))-N-(3-pyridylmethyl)carboxamide], the IC50 stood at 0.018 µM.

For the molecule `N#Cc1ccccc1-c1nc(NCCc2cccc(F)c2)c(C(=O)NCc2cccnc2)cc1Cl` [(5-chloro-6-(2-cyanophenyl)-2-{[2-(3-fluorophenyl)ethyl]amino}(3-pyridyl))-N-(3-pyridylmethyl)carboxamide], the IC50 turned out to be 0.512 µM.

As to `COC(=O)CCC(=O)N1CCC[C@@H]1CNC(=O)c1ccc(-c2ccccc2C#N)nc1NCCc1cccc(F)c1` [methyl 4-((2R)-2-{[(6-(2-cyanophenyl)-2-{[2-(3-fluorophenyl)ethyl]amino}(3-pyridyl))carbonylamino]methyl}pyrrolidinyl)-4-oxobutanoate], the IC50 was 0.657 µM.

On to `O=Cc1ccsc1-c1ccc(C(=O)NCc2cccnc2)c(NCCc2cccc(F)c2)n1` [(2-{[2-(3-fluorophenyl)ethyl]amino}-6-(3-formyl(2-thienyl))(3-pyridyl))-N-(3-pyridylmethyl)carboxamide], for which the IC50 is 0.783 µM.

Take `O=C(NCc1cccnc1)c1ccc(-c2ccc(F)c(F)c2)nc1NCCc1cccc(F)c1` [(6-(3,4-difluorophenyl)-2-{[2-(3-fluorophenyl)ethyl]amino}(3-pyridyl))-N-(3-pyridylmethyl)carboxamide]: the IC50 came to 0.534 µM.

As to `Cn1cc(-c2ccc(C(=O)NC[C@H]3CCC(=O)N3CCCNC(=O)OC(C)(C)C)c(NCCc3cccc(F)c3)n2)cn1` [N-[((2R)-1-{3-[(tert-butoxy)carbonylamino]propyl}-5-oxopyrrolidin-2-yl)methyl](2-{[2-(3-fluorophenyl)ethyl]amino}-6-(1-methylpyrazol-4-yl)(3-pyridyl))carboxamide], the IC50 came out at 1.34 µM.

As usually defined, the IC50 is the point on the concentration scale where inhibition reaches its midpoint.
